From patent publication US8101211B2, “Compositions for retarding skin aging” (Kabushiki Kaisha Yakult Honsha, priority 2000, dated 2012) come the findings set out here.

Values after ≈ are worked out from the molar mass of the structure shown.

Test [1] has as its system B16 mouse melanoma cells (B16-F1 cells, ATCC No. CRL-6323). Description: Melanin formation-inhibiting test (extracellular melanin, 96-well plate method). It counts as cell-based. Conditions: for IC50: Mus musculus, extracellular melanin, B16-F1 cells, read-out: Melanin formation inhibition IC50; for Melanin formation inhibition, % Inhibition at 0.001%: test concentration 0.001%, 3 days, theophylline 0.5 mM. The method, then:
Measurements were made by the 96-well plate method using […] mouse melanoma cells (B16-F1 cells, ATCC No. CRL-6323) purchased from Dainippon Pharmaceutical. The cells (1×10^4) were sowed into each well and cultured in 10% FCS- and 1% antibiotic-containing D-MEM for 24 hours (37° C., 5% CO2), the medium was then replaced with D-MEM supplemented with the test substance and theophylline (0.5 mM), and cultivation was further continued for 3 days. The solvent (ethanol) for the test substance was added to the medium in a final concentration of 1%. An equal volume of HEPES buffer (pH 6.8)/ethanol (9:1) was added to the culture supernatant obtained by centrifugation and the absorbance at 475 nm to 660 nm was measured on the microplate reader EL-340 (BIO-TEK INSTRUMENT), and the melanin formation-inhibiting activity was evaluated in terms of the amount of extracellular melanin.

Test [2] is described as follows: DPPH radical-capturing activity. Conditions: concentration at which DPPH radical scavenging is 50%. An excerpt:
[table] […] The extent of activity was expressed in terms of DPPH Radial Scavenging (%) calculated according to the following formula: DPPH Radial Scavenging (%)=(A−B)/A×100 where A: absorbance without addition of sample, B: absorbance with addition of sample. […]
On the technique in general: Loss of DPPH colour is used to gauge radical scavenging.

`OC[C@H]1O[C@@H](Oc2ccc(O)cc2)[C@H](O)[C@@H](O)[C@@H]1O` [Arbutin]: in test [1], the IC50 (as a rule, the concentration at which inhibition is half-maximal) turned out to be 12.1 µg/mL (≈ 44.4 µM) and the “Melanin formation inhibition, % Inhibition at 0.001%” value was found to be 32.4%.
With `O=C1O[C@H]([C@@H](O)CO)C(O)=C1O` [Ascorbic acid], in test [2], the “DPPH radical scavenging IC50” value amounted to 4.1 µg/mL.
The same measure, in the same setting: to `N[C@@H](CCC(=O)N[C@@H](CS)C(=O)NCC(=O)O)C(=O)O` [Glutathione] belongs 13.5 µg/mL.
As for `O=c1cc(CO)occ1O` [Kojic acid], in test [1], the IC50 stood at 12.9 µg/mL (≈ 90.8 µM) and the “Melanin formation inhibition, % Inhibition at 0.001%” value was 25.7%.
